From paper PMC3362575, “Synthesis and Biological Evaluation of Phenanthrenes as Cytotoxic Agents with Pharmacophore Modeling and ChemGPS-NP Prediction as Topo II Inhibitors” (PLoS ONE, 2012)
≈ marks a conversion by molar mass, not a printed value. Where two headings read alike, the source gives them in different places.

Assays:
[1] = tested on: HepG2; experiment: MTT cytotoxicity assay, HepG2; type: cell-based, human; settings: Homo sapiens
Experimental: (§1) The cytotoxic assay of 11 naturally occurring and 19 synthesized phenanthrenes was carried out on a diverse set of human liver (HepG2 and Hep3B), oral (Ca9-22), lung (A549) and breast (MEA-MB-231 and MCF7) cancer cell lines, and a human fetal lung fibroblast (MRC-5) cell line (Tables 1 and 2).
(§2) Compounds were tested against human liver (HepG2 and Hep3B), oral (Ca9-22), lung (A549), breast (MEA-MB-231 and MCF7) cancer cell lines, and the human fetal lung fibroblast (MRC-5) cell line using an established colorimetric MTT assay protocol. The absorbance was measured at 550 nm using a microplate reader. The IC50 is the concentration of agent that reduced cell growth by 50% under the experimental conditions.

[2] = tested on: Hep3B; experiment: MTT cytotoxicity assay, Hep3B; type: cell-based, human; settings: Homo sapiens, Hep3B
Experimental: as §1, §2

[3] = tested on: Ca9-22; experiment: MTT cytotoxicity assay, Ca9-22; type: cell-based, human; settings: Homo sapiens
Experimental: as §1, §2

[4] = tested on: A549; experiment: MTT cytotoxicity assay, A549; type: cell-based, human; settings: Homo sapiens
Experimental: as §1, §2

[5] = tested on: MCF-7; experiment: MTT cytotoxicity assay, MCF-7; type: cell-based, human; settings: Homo sapiens; for IC50: MTT; for MCF-7 activity class (from IC50): MCF7, Table S3, read-out: Scale Exptl. (MCF-7 activity class)
Experimental: as §1, §2
The pharmacophore modeling with Catalyst HypoGen was performed via Discovery Studio 2.1 (Accelrys, San Diego, CA, USA). Twenty-nine phenanthrene derivatives were collected from the natural plant, C. arisanensis, and from chemical synthesis (Figure 2). Cytotoxicity against MCF-7 cells was determined by the MTT assay and the concentration (µg/mL) of test compound which inhibited 50% of the cancer cells (IC50) was used in the generation of the pharmacophore model. An IC50 value of >20 µg/mL was defined as 20 µg/mL. All experimental IC50 values spanned about 2–3 orders of magnitude from 0.09 to 20 µg/mL. The 2D/3D structures of compounds were generated using ChemBioOffice 2008 (Cambridge Scientic Computing, Cambridge, Massachusetts, USA) and then optimized in a Dreiding force field. The conformational ensemble of each compound was generated using the best conformational analysis method based on a CHARMM force field with a 20 kcal/mol energy threshold above the global minimum. A maximum limit of 255 conformations was used to cover maximum conformational space. The best 3D arrangements of chemical functionalities should explain the activity variations among the 29 compounds. Thirty runs with different parameters were performed for the best pharmacophore hypothesis. Four chemical features, including hydrogen-bond acceptor (HBA), hydrogen-bond donor (HBD), hydrophobic (HYD), and aromatic ring (AR) features, were also tested during the building of pharmacophore hypotheses (Table S1; Text S1). The best hypotheses were selected via a correlation and a cost analysis in Catalyst HypoGen.

[6] = tested on: MDA-MB-231; experiment: MTT cytotoxicity assay, MDA-MB-231; type: cell-based, human; settings: Homo sapiens
Experimental: as §1, §2

[7] = tested on: MRC-5; experiment: MTT cytotoxicity assay, MRC-5 fetal lung fibroblast; type: cell-based, human; settings: Homo sapiens, normal fetal lung fibroblast
Experimental: as §1, §2

[8] = tested on: human cancer cell lines; experiment: MTT cytotoxicity assay, ranges over the cancer cell line panel; type: cell-based; settings: for IC50: Homo sapiens
Experimental: as §1, §2

[9] = target: T1, topoisomerase IIα (Homo sapiens, UniProt P11388); experiment: Topoisomerase II DNA cleavage assay (Topo II Drug Screening Kit); type: biochemical; settings: for formation of linear DNA (Topo IIα DNA cleavage complex): pHOT plasmid DNA, topoisomerase IIα
T1 construct: purchased TopoGEN, Inc
Experimental: From the ChemGPS-NP analysis, it seems that the MOA for 3-methoxy-1,4-PQs might processes cytotoxicity as a topoisomerase II inhibitor.
Figure 10 Topoisomerase II DNA cleavage assay. An in vitro assay was used to assess the effect of compounds 6a and 5a on the DNA cleavage activity of human TopoII. Etoposide was the positive control. Control lane: TopoIIα + plasmid DNA. DMSO lane: TopoIIα + plasmid DNA + DMSO.
Topoisomerase II assay was performed by using a Topo II Drug Screening Kit (TopoGEN, Inc.). In brief, 0.1 µg of pHOT plasmid DNA was incubated with 2 units of topoisomerase IIα in 20 µL assay buffer at 37°C for 40 min in the presence of tested compounds (6a, 5a) and control drug, etoposide, respectively. 2 µL of 10% SDS and 2.5 µL of 10 mg/mL proteinase K were added into the reaction sample and then incubated for 30 min at 37°C to digest topoisomerase IIα. The samples were mixed with 2 µL of loading buffer and cleaned up by adding an equal volume of phenol:chloroform:isoamyl alcohol (25∶24∶1) according to the description. The sample was mixed by vortex and centrifuge for 10 sec. An aliquot (10 µL) of the upper aqueous part was analyzed by electrophoresis with 2% agarose gel containing 0.5 µg/mL of ethidium bromide.

[10] = tested on: human topoisomerase IIα; design: method as in PMID 15182198; settings: cited from earlier work
[11] = HepG2, Table 2, synthesized phenanthrenes
[12] = Table 2, synthesized phenanthrenes
[13] = Ca9-22, Table 2, synthesized phenanthrenes
[14] = A549, Table 2, synthesized phenanthrenes
[15] = MCF7, Table 2, synthesized phenanthrenes
[16] = MDA-MB-231, Table 2, synthesized phenanthrenes
[17] = MRC5, Table 2, synthesized phenanthrenes
[18] = range over the cancer cell lines tested, read-out: IC50 against various / all human cancer cell lines

T1 sequence (P11388 whole entry): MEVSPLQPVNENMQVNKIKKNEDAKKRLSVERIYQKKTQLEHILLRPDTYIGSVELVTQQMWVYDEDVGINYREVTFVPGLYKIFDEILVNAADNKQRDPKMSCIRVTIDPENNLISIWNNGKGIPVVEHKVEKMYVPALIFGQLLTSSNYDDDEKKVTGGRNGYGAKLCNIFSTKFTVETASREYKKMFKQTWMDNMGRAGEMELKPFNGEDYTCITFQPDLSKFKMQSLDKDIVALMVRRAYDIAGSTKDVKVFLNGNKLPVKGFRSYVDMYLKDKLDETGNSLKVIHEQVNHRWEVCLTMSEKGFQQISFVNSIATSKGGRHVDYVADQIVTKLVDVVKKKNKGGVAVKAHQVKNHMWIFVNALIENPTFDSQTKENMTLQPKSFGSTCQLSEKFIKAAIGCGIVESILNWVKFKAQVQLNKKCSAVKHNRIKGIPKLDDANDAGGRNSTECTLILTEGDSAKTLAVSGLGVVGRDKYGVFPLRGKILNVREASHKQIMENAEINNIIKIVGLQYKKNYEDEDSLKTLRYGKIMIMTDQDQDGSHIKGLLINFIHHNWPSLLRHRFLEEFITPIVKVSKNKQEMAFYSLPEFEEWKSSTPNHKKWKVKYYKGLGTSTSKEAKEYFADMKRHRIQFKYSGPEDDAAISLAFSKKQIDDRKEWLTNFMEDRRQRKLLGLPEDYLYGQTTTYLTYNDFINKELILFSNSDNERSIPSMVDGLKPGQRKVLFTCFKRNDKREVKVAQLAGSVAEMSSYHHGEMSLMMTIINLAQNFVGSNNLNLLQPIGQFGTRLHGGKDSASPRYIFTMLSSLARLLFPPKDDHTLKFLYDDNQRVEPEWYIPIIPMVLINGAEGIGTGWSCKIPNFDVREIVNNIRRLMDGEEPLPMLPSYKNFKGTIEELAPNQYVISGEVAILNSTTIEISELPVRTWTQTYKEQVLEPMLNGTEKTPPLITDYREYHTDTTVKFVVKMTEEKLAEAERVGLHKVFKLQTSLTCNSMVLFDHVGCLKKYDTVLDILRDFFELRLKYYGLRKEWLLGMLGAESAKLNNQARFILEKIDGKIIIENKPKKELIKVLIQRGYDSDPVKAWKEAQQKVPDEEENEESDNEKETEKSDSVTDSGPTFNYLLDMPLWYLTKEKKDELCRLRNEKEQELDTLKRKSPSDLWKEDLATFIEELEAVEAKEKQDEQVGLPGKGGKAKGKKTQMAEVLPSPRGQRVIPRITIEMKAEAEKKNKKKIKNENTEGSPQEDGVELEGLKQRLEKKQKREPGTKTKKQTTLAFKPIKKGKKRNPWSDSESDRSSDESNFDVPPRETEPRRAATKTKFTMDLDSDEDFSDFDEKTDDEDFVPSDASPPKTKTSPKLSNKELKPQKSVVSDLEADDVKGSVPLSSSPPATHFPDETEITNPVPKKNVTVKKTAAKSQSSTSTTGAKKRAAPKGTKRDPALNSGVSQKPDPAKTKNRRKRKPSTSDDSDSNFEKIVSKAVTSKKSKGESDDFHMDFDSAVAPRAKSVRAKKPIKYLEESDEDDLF

| melting point [°C] | SMILES | IC50 [1, 11] [µg/mL] | IC50 [2, 12] [µg/mL] | IC50 [3, 13] [µg/mL] | IC50 [4, 14] [µg/mL] | IC50 [5, 15] [µg/mL] | MCF-7 activity class (from IC50) [5] [µg/mL] | IC50 [6, 16] [µg/mL] | IC50 [7, 17] [µg/mL] | further results |
| --- | --- | --- | --- | --- | --- | --- | --- | --- | --- | --- |
| – | COC1=CC(=O)c2ccc3cc(OC)c(OC)c(O)c3c2C1=O [Compound 6a, 5-Hydroxy-3,6,7-trimethoxy-1,4-phenanthrenequinone] | 0.08 (≈ 0.255 µM) | 0.19 ± 0.01 (≈ 0.605 µM) | 0.59 ± 0.01 (≈ 1.88 µM) | 0.14 ± 0.02 (≈ 0.445 µM) | 0.2 (≈ 0.636 µM) | < 1 | 0.89 ± 0.01 (≈ 2.83 µM) | 0.6 ± 0.05 (≈ 1.91 µM) | IC50 ([1]; HepG2, Table 1, natural phenanthrenes): 0.21 ± 0.01 µg/mL (≈ 0.668 µM); IC50 ([2]; Table 1, natural phenanthrenes): 0.22 µg/mL (≈ 0.7 µM); IC50 ([3]; Ca9-22, Table 1, natural phenanthrenes): 0.17 ± 0.01 µg/mL (≈ 0.541 µM); IC50 ([4]; A549, Table 1, natural phenanthrenes): 0.11 µg/mL (≈ 0.35 µM); IC50 ([5]; MCF7, Table 1, natural phenanthrenes): 0.09 µg/mL (≈ 0.286 µM); IC50 ([6]; MDA-MB-231, Table 1, natural phenanthrenes): 0.64 ± 0.06 µg/mL (≈ 2.04 µM); IC50 ([7]; MRC5, Table 1, natural phenanthrenes): 0.65 µg/mL (≈ 2.07 µM); fold greater cytotoxic activity than denbinobin (6b) ([8]; HepG2, Hep3B, Ca9-22, A549, MEA-MB-231 and MCF7 cancer cell lines): up to 7 fold; IC50 [8, 18]: 0.08 to 1.66 µg/mL (≈ 0.255 to 5.28 µM); inhibition on Topo IIα (supercoiled DNA instead of relaxed) ([9]; 100 µmol/L): showed the inhibition on Topo IIα; formation of linear DNA (Topo IIα DNA cleavage complex) [9]: induced the formation of linear DNA |
| 121 | COc1cc(OC)c2c3c(ccc2c1)C(=O)C=CC3=O [Compound 4b, 5,7-Dimethoxy-1,4-phenanthrenequinone] | 18.64 ± 0.14 (≈ 69.5 µM) | 12.1 ± 0.33 (≈ 45.1 µM) | 3.45 ± 0.03 (≈ 12.9 µM) | > 20 | 15.63 ± 0.01 (≈ 58.3 µM) | 1 to 20 | 7.09 ± 0.01 (≈ 26.4 µM) | > 20 | – |
| 268 | COC1=CC(=O)c2ccc3c(-c4c(OC)c(OC)c(OC)c5c6c(ccc45)C(OC)=CC(=O)C6=O)c(OC)c(OC)c(OC)c3c2C1=O [Compound 5f, 3,5,6,7,1′,5′,6′,7′-octamethoxy-[8,8′]bi-1,4,5′,6′-phenanthrenequinone] | 19.6 ± 0.74 (≈ 30 µM) | 7.88 ± 0.19 (≈ 12 µM) | 4.57 ± 0.03 (≈ 6.98 µM) | > 20 | 14.8 ± 0.21 (≈ 22.6 µM) | 1 to 20 | 4.74 ± 0.02 (≈ 7.24 µM) | > 20 | – |
| – | COC1=CC(=O)c2ccc3cc(OC)c(OC)c(OC(C)=O)c3c2C1=O [Compound 7a, 5-Acetoxy-3,6,7-trimethoxy-1,4-phenanthrenequinone] | 11.3 ± 0.14 (≈ 31.7 µM) | 0.36 ± 0.14 (≈ 1.01 µM) | 0.84 ± 0.05 (≈ 2.36 µM) | 0.6 ± 0.01 (≈ 1.68 µM) | 0.16 (≈ 0.449 µM) | < 1 | 1.13 ± 0.05 (≈ 3.17 µM) | 1.14 ± 0.01 (≈ 3.2 µM) | IC50 ([8]; HepG2, range over five cancer cell lines, not including HepG2, read-out: IC50 against five cancer cell lines): 0.16 to 1.66 µg/mL (≈ 0.449 to 4.66 µM); IC50 [8, 18]: 0.08 to 1.66 µg/mL (≈ 0.225 to 4.66 µM) |
| – | O=C1C=CC(=O)C=C1 [1,4-benzoquinone] | – | – | – | – | – | – | – | – | poisoning of human topoisomerase IIα [10]: poison human topoisomerase IIα |
| – | COC1=CC(=O)c2ccc3cc(OC)c(OC)c(OC)c3c2C1=O [Compound 5a, 3,5,6,7-Tetramethoxy-1,4-phenanthrenequinone] | 4.65 ± 0.07 (≈ 14.2 µM) | 4.67 ± 0.81 (≈ 14.2 µM) | 5.99 ± 0.24 (≈ 18.2 µM) | 11 ± 0.44 (≈ 33.6 µM) | 14.3 ± 0.5 (≈ 43.5 µM) | 1 to 20 | > 20 | > 20 | activity against all human cancer cell lines [8]: marginal activities; inhibition on Topo IIα (supercoiled DNA instead of relaxed) ([9]; 200 µmol/L): had the similar effect; formation of linear DNA (Topo IIα DNA cleavage complex) [9]: induced the formation of linear DNA |
| 179 | COc1cc(OC)c2c3c(ccc2c1)C(=O)CC(OC)(OC)C3=O [Compound 5c, 3,3,5,7-tetramethoxy-2,3-dihydro-1,4-phenanthrenequinone] | > 20 | 13.8 ± 0.38 (≈ 41.7 µM) | 9.07 ± 0.09 (≈ 27.5 µM) | 12 ± 2.18 (≈ 36.3 µM) | 11.1 ± 0.02 (≈ 33.6 µM) | 1 to 20 | 19.1 ± 0.43 (≈ 57.9 µM) | > 20 | – |
| – | COC1=CC(=O)c2ccc3cc(OC)cc(OC)c3c2C1=O [Compound 5b, 3,5,7-Trimethoxy-1,4-phenanthrenequinone] | 13 ± 0.21 (≈ 43.5 µM) | 15.9 ± 0.21 (≈ 53.5 µM) | 15.25 ± 0.05 (≈ 51.1 µM) | 15.7 ± 0.17 (≈ 52.7 µM) | 14.4 ± 0.28 (≈ 48.3 µM) | 1 to 20 | 19 ± 0.55 (≈ 63.6 µM) | > 20 | activity against all human cancer cell lines [8]: marginal activities |

| SMILES | melting point [°C] | IC50 [1, 11] [µg/mL] | IC50 [2, 12] [µg/mL] | IC50 [3, 13] [µg/mL] | IC50 [4, 14] [µg/mL] | IC50 [5, 15] [µg/mL] | MCF-7 activity class (from IC50) [5] [µg/mL] | IC50 [6, 16] [µg/mL] | IC50 [7, 17] [µg/mL] | further results |
| --- | --- | --- | --- | --- | --- | --- | --- | --- | --- | --- |
| COc1cc(O)c2c(ccc3c(OC)ccc(OC)c32)c1 [Compound 9b, 5-hydroxy-1,4,7-trimethoxy-phenanthrene] | 71 | > 20 | > 20 | > 20 | > 20 | > 20 | > 20 | > 20 | > 20 | – |
